{"source": "patent US20260240835A1", "about": "(priority 2022, published 2026)", "key": {"[1]": {"test": "Pharmacokinetics in moderate hepatic impairment versus matched healthy subjects", "assay_type": "in vivo, human", "excerpt": "Data are GMRs and 90% Cls. References used are the matched healthy subjects for renal and hepatic impairment studies, and extensive or ultra-extensive CYP2D6 metabolizers respectively."}, "[2]": {"test": "Pharmacokinetics in moderate renal impairment versus matched controls", "text": "(§1) References used are the matched healthy subjects for renal and hepatic impairment studies, and extensive or ultra-extensive CYP2D6 metabolizers respectively."}, "[3]": {"test": "Solubility of the powder in water"}, "[4]": {"test": "Co-administration of paroxetine and the subject combination (drug interaction)"}, "[5]": {"test": "Pharmacokinetics in CYP2D6 poor metabolizers versus extensive metabolizers", "conditions": "12 poor metabolizers treated with the subject combination in efficacy trials", "text": "Approximately 7% to 10% of Caucasians and 3% to 8% of African Americans lack the capacity to metabolize CYP2D6 substrates and are classified as poor metabolizers.\nas §1"}, "[6]": {"test": "Effect of food on pharmacokinetics of the subject combination"}, "[7]": {"test": "Steady state pharmacokinetics after administration of the subject combination", "conditions": "for dose proportionality of changes in AUC and Cmax at steady state: co-administered with bupropion; for AUC0-12 relative to that of bupropion / Cmax relative to that of bupropion / time post-dose at which Cmax of the metabolite occurs: after administration of the subject combination; for apparent elimination half-life of metabolite: subject combination"}, "[8]": {"test_system": "patients with treatment-resistant depression or MDD with acute suicidal ideation or behavior", "conditions": "cited from earlier work"}, "[9]": {"conditions": "human, in vivo"}, "[10]": {"conditions": "20 mg paroxetine, tablet of Example 4 twice daily, vs tablet without paroxetine"}, "[11]": {"conditions": "given as the subject combination"}, "[12]": {"conditions": "7 subjects with moderate (GFR 30-60 mL/min) renal impairment vs 6 matched controls"}}, "note": "Counter-ions that a name gives are not always drawn. Like-named read-outs stand apart in the source and are kept apart here."}
{"smiles": "CC(NC(C)(C)C)C(=O)c1cccc(Cl)c1", "note": "(racemic) [bupropion]", "values": [{"measurement": "AUC0-12 and Cmax compared with healthy patients", "setting": "[1]; human, in vivo", "result": "not significantly different"}, {"measurement": "increase in exposure versus matched controls with normal renal function", "setting": "[2]; human, in vivo", "result": "approximately 2 fold"}, {"measurement": "reduction in clearance versus matched controls with normal renal function", "setting": "[2]; human, in vivo", "result": 50, "unit": "%"}]}
{"smiles": "COc1ccc2c(c1)[C@]13CCCC[C@@H]1[C@H](C2)N(C)CC3", "note": "[Dextromethorphan hydrobromide, morphinan, 3-methoxy-17-methyl-, (9α, 13α, 14α), hydrobromide monohydrate]", "values": [{"measurement": "solubility in water", "setting": "[3]", "result": "sparingly soluble"}]}
{"smiles": "COc1ccc2c(c1)[C@]13CCCC[C@@H]1[C@H](C2)N(C)CC3", "note": "[dextromethorphan]", "values": [{"measurement": "increase in AUC0-12 with concomitant paroxetine", "setting": "[4]; [10]", "result": 2.69, "unit": "fold"}, {"measurement": "increase in Cmax with concomitant paroxetine", "setting": "[4]; [10]", "result": 2.38, "unit": "fold"}, {"measurement": "change in overall exposure caused by paroxetine", "setting": "[4]; 29 healthy volunteers, paroxetine co-administered with the subject combination", "result": 2.5, "unit": "fold"}, {"measurement": "steady state plasma concentrations compared with non-poor metabolizers", "setting": "[5]", "result": "generally higher"}, {"measurement": "change in Cmax when administered with food", "setting": "[6]", "result": "unchanged"}, {"measurement": "decrease in AUC0-12 when administered with food", "setting": "[6]", "result": 14, "unit": "%"}, {"measurement": "AUC0-12 and Cmax compared with healthy patients", "setting": "[1]; patients having moderate hepatic impairment (Group 2)", "result": "not significantly different"}, {"measurement": "dose proportionality of changes in AUC and Cmax at steady state", "setting": "[7]; varying doses of bupropion (75 to 150 mg)", "result": "less than dose-proportional"}, {"measurement": "dose proportionality of changes in AUC and Cmax at steady state", "setting": "[7]; varying doses of dextromethorphan (30 to 60 mg)", "result": "greater than dose-proportional"}, {"measurement": "increase in mean elimination half-life as compared to dextromethorphan given without bupropion", "setting": "[7]; following 8 days of administration of the subject combination in extensive metabolizers", "result": "approximately 3 fold"}, {"measurement": "accumulation ratio at steady state based on AUC0-12", "setting": "[7]; [11]", "result": "about 32"}, {"measurement": "accumulation ratio at steady state based on Cmax", "setting": "[7]; [11]", "result": "about 20"}, {"measurement": "increase in exposure versus matched controls with normal renal function", "setting": "[2]; [12]", "result": "approximately 2 fold"}, {"measurement": "reduction in clearance versus matched controls with normal renal function", "setting": "[2]; [12]", "result": 50, "unit": "%"}]}
{"smiles": "CC(NC(C)(C)C)C(O)c1cccc(Cl)c1", "note": "(centres unmarked) [erythrohydroxybupropion]", "values": [{"measurement": "AUC0-12 relative to that of bupropion", "setting": "[7]", "result": "about 1.2 times"}, {"measurement": "Cmax relative to that of bupropion", "setting": "[7]", "result": "approximately equal to"}, {"measurement": "time post-dose at which Cmax of the metabolite occurs", "setting": "[7]", "result": "approximately 4 hours"}, {"measurement": "apparent elimination half-life of metabolite", "setting": "[7]", "result": "~44", "unit": "h"}]}
{"smiles": "CN[C@]1(c2ccccc2Cl)CCCCC1=O", "note": "[esketamine]", "values": [{"measurement": "incidence of sedation (MOAA/S score <5) compared to placebo plus oral antidepressant", "setting": "[8]; adults with MDD with acute suicidal ideation or behavior, plus oral antidepressant", "result": "higher incidence of sedation"}, {"measurement": "Incidence of Sedation (MOAA/S score <5)", "setting": "[8]; fixed-dose study, TRD patients <65 years, 56 mg + oral AD", "result": 50, "unit": "%"}, {"measurement": "Incidence of Sedation (MOAA/S score <5)", "setting": "[8]; fixed-dose study, TRD patients <65 years, 84 mg + oral AD", "result": 61, "unit": "%"}, {"measurement": "Incidence of Sedation (MOAA/S score <5)", "setting": "[8]; flexible-dose study, TRD patients ≥65 years, 28 to 84 mg + oral AD", "result": 49, "unit": "%"}]}
{"smiles": "C[C@H]1NC(C)(C)CO[C@]1(O)c1cccc(Cl)c1", "note": "[hydroxybupropion]", "values": [{"measurement": "AUC0-12 relative to that of bupropion", "setting": "[7]", "result": "about 19 times"}, {"measurement": "Cmax relative to that of bupropion", "setting": "[7]", "result": "approximately 14 times"}, {"measurement": "time post-dose at which Cmax of the metabolite occurs", "setting": "[7]", "result": "about 3 hours"}, {"measurement": "apparent elimination half-life of metabolite", "setting": "[7]", "result": "approximately 35 hours"}]}
{"smiles": "Fc1ccc([C@@H]2CCNC[C@H]2COc2ccc3c(c2)OCO3)cc1", "note": "[paroxetine]", "values": [{"measurement": "increase in overall exposure when co-administered with the subject combination", "setting": "[9]", "result": 1.2, "unit": "fold"}]}
{"smiles": "C[C@H](NC(C)(C)C)[C@@H](O)c1cccc(Cl)c1", "note": "[threohydroxybupropion]", "values": [{"measurement": "AUC0-12 relative to that of bupropion", "setting": "[7]", "result": "about 7 times"}, {"measurement": "Cmax relative to that of bupropion", "setting": "[7]", "result": "about 5 times"}, {"measurement": "time post-dose at which Cmax of the metabolite occurs", "setting": "[7]", "result": "approximately 4 hours"}, {"measurement": "apparent elimination half-life of metabolite", "setting": "[7]", "result": "~33", "unit": "h"}]}
